Assay results: US5120538A, “Combinations of compounds isolated from curcuma spp as anti-inflammatory agents” (PT Darya-Varia Laboratoria, priority 1990, dated 1992)

Experiments:
inflammation = conditions: cited from earlier work
bacteria = conditions: in vitro; cited from earlier work
cholesterol levels = conditions: rats; cited from earlier work
[1] = system: choleretic effect of curcumin; conditions: cited from earlier work
[2] = system: Oedema of right-hind paw induced by injection of 1% carrageenan solution; test: Carrageenan-induced paw oedema inhibition in rats; assay type: in vivo, Male inbred albino rats, Wistar derived LMR strain; conditions: rat, 0.01 g one hour before induction, controls safflower oil
Method: Male inbred albino rats of the Wistar derived LMR strain, weighing between 140 and 160 grams are used. Each treatment group consists of ten rats. The rats are fasted for one night and weighed the next morning. Oedema is induced in the right-hind paw of each rat by means of an injection of 1% carrageenan solution. Before the injection and each hour after injection, the volume of the right-hind paw is measured. Measurement of the volume is done by dipping the rats paw into a liquid up to a predetermined mark and measuring or weighing the displaced liquid. The apparatus for measuring volume is calibrated against objects with known volumes. Animals in the treatment groups are administered the drug orally once an hour for three hours before induction of oedema. Animals in the control groups are administered either safflower oil or polyethyleneglycol (PEG) one hour before induction. Piroxicam, a known anti-inflammatory agent used as a positive control, is administered one hour before induction.

## COc1cc(/C=C/C(=O)CC(=O)/C=C/c2ccc(O)c(OC)c2)ccc1O [Curcumin, diferuloylmethane]
inflammation
  anti-inflammatory effects: anti-inflammatory effects
bacteria
  antibacterial activity: antibacterial activity
Cholesterol levels
  cholesterol levels: lower cholesterol levels

## O=C(C=Cc1ccc(O)cc1)CC(=O)C=Cc1ccc(O)cc1 [Bis-desmethoxycurcumin, dihydroxydicinnamoyl methane]
[1]
  choleretic effect of curcumin: inhibit the choleretic effect of curcumin

## CN1C(C(=O)Nc2ccccn2)=C(O)c2ccccc2S1(=O)=O [Piroxicam]
[2]; 1 hr. after induction
  % Oedema Inhibition over 6 Hr. Period After Induction, 1 hr.: 25.9%
[2]; 2 hr. after induction
  % Oedema Inhibition over 6 Hr. Period After Induction, 2 hr.: 49.0%
[2]; 3 hr. after induction
  % Oedema Inhibition over 6 Hr. Period After Induction, 3 hr.: 52.6%
[2]; 4 hr. after induction
  % Oedema Inhibition over 6 Hr. Period After Induction, 4 hr.: 43.4%
[2]; 5 hr. after induction
  % Oedema Inhibition over 6 Hr. Period After Induction, 5 hr.: 41.4%
[2]; 6 hr. after induction
  % Oedema Inhibition over 6 Hr. Period After Induction, 6 hr.: 36.5%
